Data: patent US9902736B2, “1-oxo/acylation-14-acylated oridonin derivative, preparation method therefor and application thereof” (HANGZHOU BENSHENG PHARMACEUTICAL CO., LTD., priority 2012, dated 2018)
≈ marks a conversion by molar mass, not a printed value.

system: RPMI 8226; test: Multiple myeloma cell growth inhibition, MTT, 72 h; type: cell-based; settings: Homo sapiens
Procedure: Multiple myeloma cell lines: RPMI8226 (multiple myeloma), purchased from Fuxiang Bio-tech Co. Ltd., Shanghai, China.
(§1) 6000 well-growing cells were obtained and inoculated into wells of a 96-well cell culture plate. […] On the next day, the 1-oxo/acylated-14-acylated oridonin derivatives of different concentrations were added and mixed uniformly. The plate was placed in a carbon dioxide cell incubator (5% CO2) at 37° C. and incubated for 72 hours. Then the viable cell concentration was determined by MTT method.

IC50 | IC90 | Structure (SMILES)
0.26 µg/mL (≈ 0.524 µM) | 0.96 µg/mL (≈ 1.93 µM) | C=C1C(=O)[C@]23[C@H](OC(=O)c4ccc(OC)cc4)[C@H]1CC[C@H]2[C@@]12CO[C@@]3(O)[C@@H](O)[C@@H]1C(C)(C)CCC2=O [BS-OR-005]

system: Hep-2; test: Solid tumor cell growth inhibition, MTT, 72 h; type: cell-based, human; settings: Homo sapiens, HEp-2; 72 h, MTT
Procedure: (§2) 6000 well-growing human solid tumor cells were obtained and inoculated into wells of a 96-well cell culture plate. The culture medium was DMEM High Glucose cell culture medium containing 10% fetal bovine serum. The plate was placed in a carbon dioxide cell incubator (5% CO2) at 37° C. and incubated for 24 hours. After added with 1-oxo/acylated-14-acylated oridonin derivatives of different concentration and mixed uniformly, the plate was placed in a carbon dioxide cell incubator (5% CO2) at 37° C. and incubated for 72 hours. Then the viable cell concentration was determined by MTT method.

IC50 | IC90 | Structure (SMILES)
1.3 µg/mL (≈ 2.62 µM) | 5.6 µg/mL (≈ 11.3 µM) | C=C1C(=O)[C@]23[C@H](OC(=O)c4ccc(OC)cc4)[C@H]1CC[C@H]2[C@@]12CO[C@@]3(O)[C@@H](O)[C@@H]1C(C)(C)CCC2=O [BS-OR-005]

system: MGC-803; test: Solid tumor cell growth inhibition, MTT, 72 h; type: cell-based, human; settings: Homo sapiens, MGC-803; 72 h, MTT
Procedure: as §2

IC50 | IC90 | Structure (SMILES)
0.7 µg/mL (≈ 1.41 µM) | 5.4 µg/mL (≈ 10.9 µM) | C=C1C(=O)[C@]23[C@H](OC(=O)c4ccc(OC)cc4)[C@H]1CC[C@H]2[C@@]12CO[C@@]3(O)[C@@H](O)[C@@H]1C(C)(C)CCC2=O [BS-OR-005]

system: CNE; test: Solid tumor cell growth inhibition, MTT, 72 h; type: cell-based, human; settings: Homo sapiens, CNE; 72 h, MTT
Procedure: as §2

IC50 | IC90 | Structure (SMILES)
1.09 µg/mL (≈ 2.2 µM) | 4.45 µg/mL (≈ 8.96 µM) | C=C1C(=O)[C@]23[C@H](OC(=O)c4ccc(OC)cc4)[C@H]1CC[C@H]2[C@@]12CO[C@@]3(O)[C@@H](O)[C@@H]1C(C)(C)CCC2=O [BS-OR-005]

system: Hela; test: Solid tumor cell growth inhibition, MTT, 72 h; type: cell-based, human; settings: Homo sapiens, HeLa; 72 h, MTT
Procedure: as §2

IC50 | IC90 | Structure (SMILES)
1.16 µg/mL (≈ 2.34 µM) | 3.4 µg/mL (≈ 6.85 µM) | C=C1C(=O)[C@]23[C@H](OC(=O)c4ccc(OC)cc4)[C@H]1CC[C@H]2[C@@]12CO[C@@]3(O)[C@@H](O)[C@@H]1C(C)(C)CCC2=O [BS-OR-005]

system: SK-OV-3; test: Solid tumor cell growth inhibition, MTT, 72 h; type: cell-based; settings: Homo sapiens, SK-OV-3; 72 h, MTT; read-out: IC50 SK-OV-3
Procedure: as §2

IC50 | Structure (SMILES)
1.22 µg/mL (≈ 2.46 µM) | C=C1C(=O)[C@]23[C@H](OC(=O)c4ccc(OC)cc4)[C@H]1CC[C@H]2[C@@]12CO[C@@]3(O)[C@@H](O)[C@@H]1C(C)(C)CCC2=O [BS-OR-005]

same assay, conditions: Homo sapiens, SK-OV-3; 72 h, MTT; read-out: IC90 SK-OV-3

IC90 | Structure (SMILES)
3.16 µg/mL (≈ 6.36 µM) | C=C1C(=O)[C@]23[C@H](OC(=O)c4ccc(OC)cc4)[C@H]1CC[C@H]2[C@@]12CO[C@@]3(O)[C@@H](O)[C@@H]1C(C)(C)CCC2=O [BS-OR-005]

system: Hep G2; test: Solid tumor cell growth inhibition, MTT, 72 h; type: cell-based; settings: Homo sapiens, HepG2
Procedure: as §2

IC50 | IC90 | Structure (SMILES)
0.84 µg/mL (≈ 1.69 µM) | 5.27 µg/mL (≈ 10.6 µM) | C=C1C(=O)[C@]23[C@H](OC(=O)c4ccc(OC)cc4)[C@H]1CC[C@H]2[C@@]12CO[C@@]3(O)[C@@H](O)[C@@H]1C(C)(C)CCC2=O [BS-OR-005]

system: A549; test: Solid tumor cell growth inhibition, MTT, 72 h; type: cell-based; settings: Homo sapiens
Procedure: as §2

IC50 | IC90 | Structure (SMILES)
1.71 µg/mL (≈ 3.44 µM) | 4.31 µg/mL (≈ 8.68 µM) | C=C1C(=O)[C@]23[C@H](OC(=O)c4ccc(OC)cc4)[C@H]1CC[C@H]2[C@@]12CO[C@@]3(O)[C@@H](O)[C@@H]1C(C)(C)CCC2=O [BS-OR-005]

system: CaEs-17; test: Solid tumor cell growth inhibition, MTT, 72 h; type: cell-based; settings: Homo sapiens, CaEs17
Procedure: as §2

IC50 | IC90 | Structure (SMILES)
0.81 µg/mL (≈ 1.63 µM) | 3.03 µg/mL (≈ 6.1 µM) | C=C1C(=O)[C@]23[C@H](OC(=O)c4ccc(OC)cc4)[C@H]1CC[C@H]2[C@@]12CO[C@@]3(O)[C@@H](O)[C@@H]1C(C)(C)CCC2=O [BS-OR-005]

system: RKO; test: Solid tumor cell growth inhibition, MTT, 72 h; type: cell-based; settings: Homo sapiens
Procedure: as §2

IC50 | IC90 | Structure (SMILES)
0.31 µg/mL (≈ 0.624 µM) | 0.84 µg/mL (≈ 1.69 µM) | C=C1C(=O)[C@]23[C@H](OC(=O)c4ccc(OC)cc4)[C@H]1CC[C@H]2[C@@]12CO[C@@]3(O)[C@@H](O)[C@@H]1C(C)(C)CCC2=O [BS-OR-005]

system: Becap-37; test: Solid tumor cell growth inhibition, MTT, 72 h; type: cell-based; settings: Homo sapiens
Procedure: as §2

IC50 | IC90 | Structure (SMILES)
0.7 µg/mL (≈ 1.41 µM) | 2.78 µg/mL (≈ 5.6 µM) | C=C1C(=O)[C@]23[C@H](OC(=O)c4ccc(OC)cc4)[C@H]1CC[C@H]2[C@@]12CO[C@@]3(O)[C@@H](O)[C@@H]1C(C)(C)CCC2=O [BS-OR-005]

system: MG-63; test: Solid tumor cell growth inhibition, MTT, 72 h; type: cell-based; settings: Homo sapiens
Procedure: as §2

IC50 | IC90 | Structure (SMILES)
0.28 µg/mL (≈ 0.564 µM) | 0.75 µg/mL (≈ 1.51 µM) | C=C1C(=O)[C@]23[C@H](OC(=O)c4ccc(OC)cc4)[C@H]1CC[C@H]2[C@@]12CO[C@@]3(O)[C@@H](O)[C@@H]1C(C)(C)CCC2=O [BS-OR-005]

system: U87-MG; test: Solid tumor cell growth inhibition, MTT, 72 h; type: cell-based; settings: Homo sapiens, U-87 MG
Procedure: as §2

IC50 | IC90 | Structure (SMILES)
0.7 µg/mL (≈ 1.41 µM) | 2.16 µg/mL (≈ 4.35 µM) | C=C1C(=O)[C@]23[C@H](OC(=O)c4ccc(OC)cc4)[C@H]1CC[C@H]2[C@@]12CO[C@@]3(O)[C@@H](O)[C@@H]1C(C)(C)CCC2=O [BS-OR-005]

system: PC-3; test: Solid tumor cell growth inhibition, MTT, 72 h; type: cell-based; settings: Homo sapiens
Procedure: as §2

IC50 | IC90 | Structure (SMILES)
1.22 µg/mL (≈ 2.46 µM) | 3.16 µg/mL (≈ 6.36 µM) | C=C1C(=O)[C@]23[C@H](OC(=O)c4ccc(OC)cc4)[C@H]1CC[C@H]2[C@@]12CO[C@@]3(O)[C@@H](O)[C@@H]1C(C)(C)CCC2=O [BS-OR-005]

system: PANC-1; test: Solid tumor cell growth inhibition, MTT, 72 h; type: cell-based; settings: Homo sapiens
Procedure: as §2

IC50 | IC90 | Structure (SMILES)
1.26 µg/mL (≈ 2.54 µM) | 4.91 µg/mL (≈ 9.89 µM) | C=C1C(=O)[C@]23[C@H](OC(=O)c4ccc(OC)cc4)[C@H]1CC[C@H]2[C@@]12CO[C@@]3(O)[C@@H](O)[C@@H]1C(C)(C)CCC2=O [BS-OR-005]

system: NB4; test: Leukemia cell growth inhibition, MTT, 72 h; type: cell-based, human; settings: Homo sapiens, NB-4; 72 h, MTT
From the text: (§3) Leukemia cell lines: leukemia cell lines: K562/adr (drug-resistant, chronic myeloid leukemia, CML), NB4 (acute promyelocytic leukemia, AML), Kasumi-1 (acute myeloid leukemia M2 type, AML-M2), Jurkat (acute lymphoblastic leukemia, ALL), all of which were donated by Cancer Research Institute of Zhejiang University, China; and H9 (acute lymphoblastic leukemia, ALL), which was purchased from China Center for Type Culture Collection.
as §1, with “6000 well-growing leukemia cells were” for “6000 well-growing cells were”, “C. and was incubated for” for “C. and incubated for”

IC50 | IC90 | Structure (SMILES)
0.07 µg/mL (≈ 0.141 µM) | 0.49 µg/mL (≈ 0.987 µM) | C=C1C(=O)[C@]23[C@H](OC(=O)c4ccc(OC)cc4)[C@H]1CC[C@H]2[C@@]12CO[C@@]3(O)[C@@H](O)[C@@H]1C(C)(C)CCC2=O [BS-OR-005]

system: H9; test: Leukemia cell growth inhibition, MTT, 72 h; type: cell-based, human; settings: Homo sapiens, H9; 72 h, MTT
From the text: as §3
as §1, with “6000 well-growing leukemia cells were” for “6000 well-growing cells were”, “C. and was incubated for” for “C. and incubated for”

IC50 | IC90 | Structure (SMILES)
0.38 µg/mL (≈ 0.765 µM) | 0.92 µg/mL (≈ 1.85 µM) | C=C1C(=O)[C@]23[C@H](OC(=O)c4ccc(OC)cc4)[C@H]1CC[C@H]2[C@@]12CO[C@@]3(O)[C@@H](O)[C@@H]1C(C)(C)CCC2=O [BS-OR-005]

system: Jurkat; test: Leukemia cell growth inhibition, MTT, 72 h; type: cell-based, human; settings: Homo sapiens, Jurkat; 72 h, MTT
From the text: as §3
as §1, with “6000 well-growing leukemia cells were” for “6000 well-growing cells were”, “C. and was incubated for” for “C. and incubated for”

IC50 | IC90 | Structure (SMILES)
0.44 µg/mL (≈ 0.886 µM) | 2.88 µg/mL (≈ 5.8 µM) | C=C1C(=O)[C@]23[C@H](OC(=O)c4ccc(OC)cc4)[C@H]1CC[C@H]2[C@@]12CO[C@@]3(O)[C@@H](O)[C@@H]1C(C)(C)CCC2=O [BS-OR-005]

same assay, conditions: as compared with oridonin

Structure (SMILES) | anti-Jurkat cell line activity increased
C=C1C(=O)[C@]23[C@H](OC(=O)c4ccc(OC)cc4)[C@H]1CC[C@H]2[C@@]12CO[C@@]3(O)[C@@H](O)[C@@H]1C(C)(C)CCC2=O [BS-OR-005] | ~4 fold

system: K562/ADR; test: Leukemia cell growth inhibition, MTT, 72 h; type: cell-based; settings: Homo sapiens
From the text: as §3
as §1, with “6000 well-growing leukemia cells were” for “6000 well-growing cells were”, “C. and was incubated for” for “C. and incubated for”

IC50 | IC90 | Structure (SMILES)
0.4 µg/mL (≈ 0.806 µM) | 1.44 µg/mL (≈ 2.9 µM) | C=C1C(=O)[C@]23[C@H](OC(=O)c4ccc(OC)cc4)[C@H]1CC[C@H]2[C@@]12CO[C@@]3(O)[C@@H](O)[C@@H]1C(C)(C)CCC2=O [BS-OR-005]

system: Kasumi-1; test: Leukemia cell growth inhibition, MTT, 72 h; type: cell-based; settings: Homo sapiens
From the text: as §3
as §1, with “6000 well-growing leukemia cells were” for “6000 well-growing cells were”, “C. and was incubated for” for “C. and incubated for”

IC50 | IC90 | Structure (SMILES)
0.43 µg/mL (≈ 0.866 µM) | 1.05 µg/mL (≈ 2.11 µM) | C=C1C(=O)[C@]23[C@H](OC(=O)c4ccc(OC)cc4)[C@H]1CC[C@H]2[C@@]12CO[C@@]3(O)[C@@H](O)[C@@H]1C(C)(C)CCC2=O [BS-OR-005]
